Results as given in PubChem BioAssay AID1996.
≈ marks a conversion by molar mass, not a printed value.

conditions: buffer; pH 7.4; 200.0 µM

| solubility kinetic [mg/mL] | Compound |
| --- | --- |
| 0.0013 (≈ 3.73 µM) | O=[N+]([O-])c1cccc(S(=O)(=O)N2CCN(c3ccccn3)CC2)c1 |
| 0.0424 (≈ 130 µM) | CC(=O)c1c(C)[nH]c(C(=O)N2CCN(c3ccccn3)CC2)c1C |
| 0.0016 (≈ 4.26 µM) | COC(=O)CSc1ncnc2c1sc1nc3c(cc12)COC(C)(C)C3 |
| > 0.0494 | O=C(c1ccc(F)cc1)C1CCN(C(=O)c2ccc(F)cc2)CC1 |
| 0.0259 (≈ 117 µM) | OCCOCCOc1cccc2[nH]ccc12 |
| 0.0171 (≈ 91.3 µM) | CCC1(C)CC(C(N)=S)CCO1 (stereo unspecified) |
| 0.0592 (≈ 149 µM) | O=C(c1ccc(F)cc1)N1CCC(C(=O)N2CCN(c3ncccn3)CC2)CC1 |
| < 0.0002 | CCCc1nc2oc3c(Cl)ncnc3c2c2c1CCCC2 |
| 0.0124 (≈ 96 µM) | c1ccc2ncccc2c1 |
| > 0.0422 | O=C(CSc1nccc(=O)[nH]1)NC1CCCCCC1 |
| > 0.0447 | O=C(CNC(=O)c1cc(Cl)cc([N+](=O)[O-])c1)NC1CC1 |
| 0.0009 (≈ 3.38 µM) | COc1ccccc1/C=N/OCc1ccc(C#N)cc1 |
| 0.0017 (≈ 6.48 µM) | CC(=O)c1ccc2c(c1)c(C#N)c1ccccc1[n+]2[O-] |
| 0.023 (≈ 69.4 µM) | CSCCC(NC(=O)C1CCCCC1)c1nc2ccccc2[nH]1 (stereo unspecified) |
| > 0.0362 | Nc1nc2ccc(Cc3ccncc3)cc2s1 |
| > 0.0457 | Cc1cc(C)c(NC(=O)COC(=O)C2CCC(=O)N2)c(C)c1 (stereo unspecified) |
| 0.0215 (≈ 64.1 µM) | CC1(C)C(=O)Nc2ccccc2N1C(=O)COc1ccccc1C#N |
| > 0.0487 | Cc1ccc(CCNC(=O)C2CCCN(S(C)(=O)=O)C2)cc1 (stereo unspecified) |
| > 0.0403 | COc1ccc(C(=O)CNC2=NCCC2)cc1.Cl |
| > 0.0431 | CC(Sc1nnc(N)s1)C(=O)Nc1nccs1 (stereo unspecified) |
| 0.04 (≈ 138 µM) | CN(Cc1ccccc1)C(=O)COc1ccccc1Cl |
| > 0.0501 | COCCNC(=O)COCc1cc(-c2ccc3c(c2)OCO3)on1 |
| 0.0048 (≈ 15.2 µM) | O=C(OCCC1Oc2cccnc2NC1=O)c1ccc(F)cc1 (stereo unspecified) |
| > 0.0378 | CCCCNC(=O)C(=O)NCCCn1ccnc1 |

| solubility kinetic [mg/mL] | Compound |
| --- | --- |
| > 0.0369 | O=C(NC(=O)N1CCCCCC1)c1ccccc1 |
| 0.0411 (≈ 118 µM) | C=CCN1C(=O)c2ccccc2NC1c1cc(Br)cs1 (stereo unspecified) |
| 0.0136 (≈ 61.2 µM) | CCCC(=O)Nc1sc(C)c(C)c1C#N |
| 0.0141 (≈ 30 µM) | COc1cc(CC(=O)Nc2cccc(S(=O)(=O)N(C)c3ccccc3)c2)cc(OC)c1OC |
| > 0.0499 | CCC(C)NC(=O)COCc1cc(-c2ccc3c(c2)OCO3)on1 (stereo unspecified) |
| 0.0376 (≈ 146 µM) | Cc1sc(N)nc1-c1c(C)n(C)c2ccccc12 |
| 0.0066 (≈ 19.8 µM) | O=C(CCCCN1CCCCC1)c1ccc2c(c1)Cc1ccccc1-2 |
| 0.0158 (≈ 53.5 µM) | COc1ccc(CC(=O)NC2CCCc3ccccc32)cc1 (stereo unspecified) |
| 0.0478 (≈ 142 µM) | CC1(C)c2cc(Cl)ccc2-n2c1cc(O)c(-c1ccccc1)c2=O |
| > 0.0354 | COc1ccc(NC(=O)N2CCOCC2)cc1 |
| 0.0212 (≈ 69.9 µM) | COc1ccc(C)cc1C(=O)CCC(=O)NC1CCCCC1 |
| 0.0288 (≈ 145 µM) | OCc1ccnc2oc3ccccc3c12 |
| 0.0499 (≈ 135 µM) | CS(=O)(=O)c1ccc(Cl)c(NC(=O)CCNC(=O)c2ccco2)c1 |
| 0.0102 (≈ 25.3 µM) | O=C(NCc1cccnc1)/C(=C/c1ccc([N+](=O)[O-])cc1)NC(=O)c1ccccc1 |
| 0.0036 (≈ 9.72 µM) | Cc1ccc(NC(=O)CSc2nc3ccccc3c(=O)[nH]2)cc1[N+](=O)[O-] |
| 0.0418 (≈ 134 µM) | Cc1noc(C)c1C(=O)N1CCC(C(=O)c2ccccc2)CC1 |
| > 0.0583 | CN(CC(=O)OCC(=O)NC1CCCC1)S(=O)(=O)c1ccc(Cl)cc1 |
| 0.0042 (≈ 18.6 µM) | CC(=O)Nc1ccc(NC=C(C#N)C#N)cc1 |
| 0.0018 (≈ 4.72 µM) | O=[N+]([O-])c1cccc(S(=O)(=O)/N=C(/Nc2ccccc2)c2ccccc2)c1 |
| 0.0082 (≈ 24.5 µM) | Nc1nc(Nc2ccccc2F)nc(N2CCOCC2)c1[N+](=O)[O-] |
| > 0.0615 | CC(=O)Nc1ccc(S(=O)(=O)Nc2cc(Cl)ccc2N2CCOCC2)cc1 |
| 0.0017 (≈ 5.96 µM) | Cc1cc(C)c2c(c1)N[C@H](c1cccs1)[C@@H]1CCO[C@H]21 |
| > 0.0345 | Oc1cccc2ccc(N3CCOCC3)nc12 |
| > 0.0499 | O=C(CN1C(=O)NC2(CCCC2)C1=O)OCCOc1ccccc1 |

| solubility kinetic [mg/mL] | Compound |
| --- | --- |
| > 0.0467 | COc1cc2nc(CCc3ccccc3)oc(=O)c2cc1OC |
| 0.0575 (≈ 131 µM) | O=C(COC(=O)c1cccnc1Cl)Nc1ccc(S(=O)(=O)N2CCOCC2)cc1 |
| > 0.0352 | Cc1ccc(NC(=S)N2CCCC2)cc1C |
| 0.05 (≈ 139 µM) | O=S(=O)(c1ccccc1)N(CC(O)CN1CCCC1)c1ccccc1 (stereo unspecified) |
| > 0.0449 | Cc1cnc(C(=O)OCC(=O)Nc2cccc(C)c2C)cn1 |
| 0.0006 (≈ 1.97 µM) | O=C(Nc1ccc(F)cc1F)Nc1csc2ccccc12 |
| 0.0252 (≈ 101 µM) | CCCC(C)NC(=S)Nc1cc(C)cc(C)c1 (stereo unspecified) |
| 0.0288 (≈ 91.9 µM) | N#CCCN(Cc1ccccc1)C(=S)Nc1ccc(F)cc1 |
| 0.0638 (≈ 131 µM) | CCCc1cc(=O)[nH]c(SCC(=O)Nc2cc(S(=O)(=O)N3CCOCC3)ccc2Cl)n1 |
| > 0.0524 | CC(=O)Nc1ccc(NS(=O)(=O)c2ccc(C)cc2)c([N+](=O)[O-])c1 |
| > 0.0523 | CCOC(=O)c1ccccc1NC(=O)C1CSC2(C)CCC(=O)N12 (stereo unspecified) |
| 0.0312 (≈ 102 µM) | Cc1cccc(C)c1N1C(=O)C(Cl)=C(N2CCCC2)C1=O |
| > 0.0474 | O=C(O)CC(c1ccc(Cl)cc1)N1Cc2ccccc2C1=O (stereo unspecified) |
| > 0.0512 | Cc1ccc(C(=O)O)cc1NS(=O)(=O)c1ccc2ccccc2c1 |
| < 0.0006 | COC(=O)c1sccc1NC(=O)c1ccc(C(C)C)cc1 |
| > 0.0439 | CN1CCN(C(=O)c2ccc(-c3cccs3)s2)CC1 |
| 0.0035 (≈ 10.2 µM) | COC(=O)c1ccc(NC(=O)CSc2nc3ncccc3[nH]2)cc1 |
| 0.0043 (≈ 18.8 µM) | Cc1ccc(C(C)C)c(Oc2cnccn2)c1 |
| 0.0005 (≈ 1.55 µM) | CCOC(=O)CNc1nc(Cl)nc(Nc2ccc(C)cc2)n1 |
| > 0.0452 | CNC(=O)c1ccc(NC(=O)CCc2c(C)noc2C)cc1 |
| > 0.0366 | COc1ccccc1NC(=O)c1ccc[n+]([O-])c1 |
| > 0.0457 | CCOc1ccccc1C(=O)NCC(=O)N1CCC(C)CC1 |
| 0.008 (≈ 23.5 µM) | Cc1ccc2nc(/N=C(\N)NC(=O)NC3CCCCC3)nc(C)c2c1 |
| 0.0116 (≈ 28.7 µM) | COc1ccc(NS(=O)(=O)c2cccc(C(=O)OCC(=O)NC3CC3)c2)cc1 |

| solubility kinetic [mg/mL] | Compound |
| --- | --- |
| < 0.0003 | COc1cccc(-c2nc3ccc([N+](=O)[O-])cc3o2)c1 |
| 0.0267 (≈ 123 µM) | O=C(Oc1ccc(F)cc1)c1cccnc1 |
| 0.0467 (≈ 143 µM) | CC(=O)c1sc2nsc(SCCN3CCCC3)c2c1N |
| > 0.0366 | COc1cc(C(C)=O)ccc1Oc1cnccn1 |
| > 0.0494 | Cc1cc(N/N=C/c2ccc(O)cc2O)nc(N2CCOCC2)n1 |
| 0.049 (≈ 147 µM) | COc1ccc(N(CC2CO2)S(=O)(=O)c2ccc(C)cc2)cc1 (stereo unspecified) |
| 0.0449 (≈ 147 µM) | O=C1C(Cc2ccc(O)cc2)NC(=S)N1C1CCCCC1 (stereo unspecified) |
| 0.0014 (≈ 4.98 µM) | COc1ccccc1NC(=O)Nc1ccc(CC#N)cc1 |
| 0.0043 (≈ 14.7 µM) | Cc1ccc(C(=O)COc2nc(C)nc3ccccc23)cc1 |
| > 0.0533 | Cc1ccc(-c2c[n+]3c(n2-c2ccccc2)CCC3)cc1.[Br-] |
| > 0.0418 | CC(C)N(C(=O)Nc1ccc2nsnc2c1)C(C)C |
| > 0.0533 | CC(C)Sc1ccccc1C(=O)Nc1ccc2c(c1)n(C)c(=O)n2C |
| 0.0149 (≈ 41.6 µM) | O=C(Nc1ccccc1O)/C(=C\c1ccccc1)NC(=O)c1ccccc1 |
| 0.0166 (≈ 50.1 µM) | S=C(NCCc1ccccc1)N1CCN(C2CCCCC2)CC1 |
| 0.0026 (≈ 8.71 µM) | CCC(C)(C)c1ccc(OCC(=O)Nc2ccncc2)cc1 |
| 0.0028 (≈ 11.4 µM) | Cc1ccc(Sc2ncccc2[N+](=O)[O-])cc1 |
| > 0.0521 | O=C(NCCN1CCOCC1)c1cc(Br)ccc1Cl |
| > 0.0518 | O=C(CN1CCN(Cc2ccc(F)cc2)CC1)Nc1ccccc1F |
| 0.0088 (≈ 30.8 µM) | Cc1cc(NC(=O)c2ccc(NC(=O)C3CC3)cc2)no1 |
| > 0.0418 | CCOc1ccc(C(=O)NCCN2CCOCC2)cc1 |
| 0.0017 (≈ 4.84 µM) | Cc1ccc(S(=O)(=O)N(C)C)cc1NC(=O)Nc1ccccc1F |
| > 0.0361 | Cl.c1ccc([C@H]2CN3CCSC3=N2)cc1 |
| 0.0318 (≈ 148 µM) | O=C(Nc1ccccc1)C1CC2CCC1C2 (stereo unspecified) |
| > 0.0499 | Cc1ccccc1C(=O)N[C@H](C(=O)OCC(=O)NC1CC1)C(C)C |

| solubility kinetic [mg/mL] | Compound |
| --- | --- |
| > 0.0327 | CN(C(=O)c1ccncc1)C1CCCCC1 |
| > 0.0384 | CCCCC(=O)Nc1cc(Cl)ccc1C(=O)O |
| 0.0008 (≈ 2.55 µM) | COc1ccc(C(C)NC(=O)C23CC4CC(CC(C4)C2)C3)cc1 (stereo unspecified) |
| 0.0039 (≈ 12.9 µM) | Cc1ccc(OCC(=O)Nc2cc(C(C)(C)C)on2)cc1C |
| 0.0062 (≈ 19.3 µM) | O=C(COC(=O)c1ccccc1O)Nc1ccc2ccccc2c1 |
| 0.027 (≈ 77 µM) | N#Cc1c2c(c(NCCOCCO)n3c1nc1ccccc13)CCCC2 |
| > 0.048 | Cn1c(=O)c(=O)n(C)c2cc([N+](=O)[O-])c(N3CCOCC3)cc21 |
| > 0.0464 | O=C(CCSCc1ccccc1F)NCc1cccs1 |
| 0.0286 (≈ 98.2 µM) | O=c1[nH]c(=S)[nH]c2c1CN(Cc1ccc(F)cc1)CC2 |
| > 0.0509 | COc1ccc(NC(=O)COC(=O)Cn2cnc3ccccc32)cc1 |
| 0.0477 | Cc1nccn1CC1CCc2c(c3ccccc3n2C)C1=O.Cl (stereo unspecified) |
| > 0.046 | CCC(C)NC(=O)C1CC(=O)N(CCc2ccc(F)cc2)C1 (stereo unspecified) |
| > 0.0417 | N#CCN1C(=O)C(=O)N(Cc2cccc(Cl)c2)C1=O |
| 0.0007 (≈ 2.08 µM) | O=C(Cn1cc(C(=O)C2CC2)c2ccccc21)Nc1ccc(F)cc1 |
| > 0.0509 | CCCCN(C(=O)c1ccc2c(c1)OCO2)C1CCS(=O)(=O)C1 (stereo unspecified) |
| > 0.0431 | Cc1nnc(SC(C)C(=O)NCC2CCCO2)s1 (stereo unspecified) |
| < 0.0006 | COC(=O)c1sccc1NC(=O)c1ccc(C)cc1 |
| > 0.0359 | CCCNC(=O)C12CCC(C)(C(=O)O1)C2(C)C (stereo unspecified) |
| < 0.0003 | CC(=O)Nc1nc2c(C)c(Cl)ccc2s1 |
| 0.0037 (≈ 12.5 µM) | CCC(=O)NCCNc1nc2cc(C)cc(C)c2cc1C#N |
| 0.0044 (≈ 12.8 µM) | COC(=O)c1cc(CSc2nc3ccccc3c(=O)n2C)oc1C |
| 0.0262 (≈ 104 µM) | CC(=O)c1ccc2noc(-c3ccc(C)cc3)c2c1 |

| Compound | solubility kinetic [mg/mL] |
| --- | --- |
| Cc1cccc(NC(=O)C(C)N2CC=C(c3ccccc3)CC2)c1 (stereo unspecified) | 0.0029 (≈ 9.05 µM) |
| COc1ccc(CCNCc2ccsc2)cc1OC | 0.0371 (≈ 134 µM) |
| c1ccc(CNCCc2c[nH]c3ccccc23)cc1 | 0.0372 (≈ 149 µM) |
